Results on two compounds are retold here after patent publication US20100216732A1, “Azithromycin for the treatment of nodular acne” (priority 2006, published 2010).

Values joined by “and” are separate entries in the source; they are usually repeats but may differ in a detail not shown here. Equal entries are not always repeated.

For assay [1], the system named is severe acne vulgaris with multiple nodules. The experiment in a line: Open label clinical study of daily or pulsed oral azithromycin, nodule counts over 3 months. Type of assay: in vivo, human. To be noted: for Nodules in the 2 non-responding patients two months after initiation of therapy: single patients. From the text: The invention is further illustrated by the following non-limiting examples. In the examples, patients included in the study were male or female subjects of any race, 16 years of age or older. presenting with 20-60 inflammatory lesions (papules or pustules), 20 to 150 non-inflammatory lesions (comedones or whiteheads), and 3 to 10 nodules. Patients having severe acne vulgaris with multiple nodules were enrolled in an open label clinical study in which each patient received a daily oral dose of 250 mg of azithromycin for the 3-month duration of the study. Lesion counts were recorded at baseline before the initiation of treatment and at 1, 2, and 3 months following initiation of treatment. […] These 2 patients had 9 and 8 nodules, respectively, at baseline and 8 and 13 nodules, respectively two months after initiation of therapy. Of the favorable responders, two patients who began the study with 3 nodules had 2 nodules at the end of the three month study. The remaining 14 patients who responded favorably to treatment had on average 6.7 nodules at baseline (range 4 to 10 nodules) and improved to having no nodules (10 patients) or at most 1 nodule (4 patients) by the end of the three month course of treatment. Another set of patients with severe acne vulgaris was enrolled in an open label clinical study as in Example 1, except that each patient received a daily oral dose of 250 mg of azithromycin for one week followed by one week of no azithromycin, which cycle was repeated for the 3-month duration of the study. […] These 2 patients had 6 and 10 nodules, respectively, at baseline and 5 and 8 nodules, respectively, two months after initiation of therapy. Three patients had partial clearing of nodules during the study. These patients had 9, 10, and 6 nodules, respectively, at baseline and 3, 4, and 2 nodules, respectively, at the end of the study. Another set of patients with severe acne vulgaris was enrolled in an open label clinical study as in Example 1, except that each patient received a daily oral dose of 125 mg of azithromycin for the 3-month duration of the study. […] These 2 patients had 8 and 3 nodules, respectively, at baseline and 10 and 4 nodules, respectively two months after initiation of therapy. The 18 patients who responded favorably to treatment had on average 5.1 nodules at baseline (range 3 to 8 nodules) and improved to having no nodules (13 patients) or at most 1 nodule (5 patients) at the end of the three month course of treatment.

Assay [2] relates to lesions of inflammatory acne. Particulars: pulse-dose regimen, three-times-weekly, versus daily doxycycline, erythromycin, minocycline, tetracycline; cited from earlier work.
In assay [3] the test system is moderate to severe inflammatory acne. To be noted: 500 mg for three consecutive days in a 10 day cycle, with topical erythromycin; cited from earlier work.
For a further assay, the system named is nodular cystic acne. To be noted: Pigatto study, in words; cited from earlier work.
[4] abbreviates: Example 1, 250 mg/day oral, 3 months, 18 patients.
Setting [5] is: Example 2, 250 mg/day every other week, 3 months, 18 patients.
The mark [6] stands for this setting: Example 3, 125 mg/day oral, 3 months, 20 patients.
Setting [7] is: Total Examples 1 to 3, 56 patients.

Regarding `CC[C@H]1OC(=O)[C@H](C)[C@@H](O[C@H]2C[C@@](C)(OC)[C@@H](O)[C@H](C)O2)[C@H](C)[C@@H](O[C@@H]2O[C@H](C)C[C@H](N(C)C)[C@H]2O)[C@](C)(O)C[C@@H](C)CN(C)[C@H](C)[C@@H](O)[C@]1(C)O` [azithromycin, 9-deoxo-9a-aza-9a-methyl-9a-homoerythromycin A], the “Number of patients that did not respond favorably to treatment” value in assay [1] (Example 1, 250 mg daily oral, of 18 patients in study longer than one month) came to 2; in assay [1] (Example 2, 250 mg daily one week on, one week off, of 18 patients), 2; in assay [1] (Example 3, 125 mg daily oral, of 20 patients) it was 2. In addition, the “Number of patients improved to at most 1 nodule by end of three month treatment” value in assay [1] (Example 1, 250 mg daily, of remaining 14 favorable responders, average 6.7 nodules at baseline) came to 4 patients. In addition, the “Number of patients improved to having no nodules by end of three month treatment” value in assay [1] (Example 1, 250 mg daily, of remaining 14 favorable responders, average 6.7 nodules at baseline (range 4 to 10)) is reported as 10 patients. Further, the “Nodules in the 2 non-responding patients two months after initiation of therapy” value in assay [1] (Example 1, 250 mg daily, 9 and 8 nodules at baseline, respectively) was 8 nodules and 13 nodules; in assay [1] (Example 2, 250 mg daily every other week, 6 and 10 nodules at baseline, respectively), 5 nodules and 8 nodules; in assay [1] (Example 3, 125 mg daily, 8 and 3 nodules at baseline, respectively), 10 nodules and 4 nodules. For the same compound, the “Nodules at the end of the three month study in two favorable responders” value in assay [1] (Example 1, 250 mg daily, two patients who began with 3 nodules) worked out at 2 nodules. Moreover, the “Number of good responders” value in assay [1] (setting [4]) amounted to 16; in assay [1] (setting [5]), 16; in assay [1] (setting [6]), 18; in assay [1] (setting [7]), 50. For the same compound, the “Percentage of good responders” value stood at 88.9% in assay [1] (setting [4]), 88.9% in assay [1] (setting [5]) and 90.0% in assay [1] (setting [6]). Further, the “Percentage of nodules cleared in good responders” value in assay [1] (Example 1, 250 mg/day, 16 good responders) turned out to be 92.0%; in assay [1] (Example 2, 250 mg/day every other week, 16 good responders), 87.9%; in assay [1] (Example 3, 125 mg/day, 18 good responders) it was 94.6%. Moreover, the “Nodules in good responders after treatment” value in assay [1] (Example 1, 250 mg/day, 16 good responders, nodules before 100) is 8; in assay [1] (Example 2, 250 mg/day every other week, 16 good responders, nodules before 99) it was 12; in assay [1] (Example 3, 125 mg/day, 18 good responders, nodules before 92) it was 5; in assay [1] (Total Examples 1 to 3, 50 good responders, nodules before 291) it was 25. In addition, the “Percentage of nodules cleared” value in assay [1] (Example 1, 250 mg/day, all 18 patients) amounted to 75.2%; in assay [1] (Example 2, 250 mg/day every other week, all 18 patients), 78.3%; in assay [1] (Example 3, 125 mg/day, all 20 patients), 81.6%; in assay [1] (setting [7]), 78.2%. Also, the “Nodules remaining after treatment” value in assay [1] (Example 1, 250 mg/day, all 18 patients, number of nodules before 117) was determined as 29; in assay [1] (Example 2, 250 mg/day every other week, all 18 patients, number of nodules before 115) it was 25; in assay [1] (Example 3, 125 mg/day, all 20 patients, number of nodules before 103), 19; in assay [1] (Total Examples 1 to 3, 56 patients, number of nodules before 335), 73. The “Number of patients improved to at most 1 nodule at end of three month treatment” value in assay [1] (Example 2, 250 mg daily every other week, of remaining 13 favorable responders, average 6.2 nodules at baseline) is on record as 3 patients; in assay [1] (Example 3, 125 mg daily, of 18 favorable responders, average 5.1 nodules at baseline), 5 patients. Further, the “Number of patients improved to having no nodules at end of three month treatment” value is given as 10 patients in assay [1] (Example 2, 250 mg daily every other week, of remaining 13 favorable responders, average 6.2 nodules at baseline (range 3 to 10)) and 13 patients in assay [1] (Example 3, 125 mg daily, of 18 favorable responders, average 5.1 nodules at baseline (range 3 to 8)). In addition, the “Nodules at the end of the study in three patients with partial clearing” value in assay [1] (Example 2, 250 mg daily every other week, single patients, 9, 10 and 6 nodules at baseline, respectively) is 3 nodules and 4 nodules and 2 nodules. Moreover, the “Efficacy in treating nodular acne vulgaris, including severe nodular acne vulgaris” value in assay [1] (systemic administration, Examples 1 to 3) is listed as “highly efficacious”. Besides, the “Efficacy in treating lesions of inflammatory acne” value in assay [2] is “as effective as other antibiotics tested”. The “Efficacy in treating moderate to severe acne vulgaris” value in assay [3] is on record as “effective”.

For the compound `CC1=C(/C=C/C(C)=C/C=C/C(C)=C\C(=O)O)C(C)(C)CCC1` [isotretinoin], the “Efficacy in treating nodular cystic acne” value with nodular cystic acne is recorded as “highly efficacious”.
